Results: PubChem BioAssay AID1902 (Broad Institute, 2009)
“And” between values parts separate entries of the source, which are not always exact repeats. Equal values may be shown once. The source made the active and inactive calls.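 The calls were made as follows: active = EC50 no more than a set limit of log units above the highest dose; inactive = the rest.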

Each compound was assayed against S. pyogenes SKKanGAS, kanamycin survival, BacTiterGlo, 6 h (assay: S. pyogenes SKKanGAS kanamycin growth inhibitors – SKKanGAS strain, luminescence, dose confirmation, streptokinase promoter inhibitor project, dose response (AID 1902);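 also: lower survival reflects blocked streptokinase promoter driving kanamycin resistance gene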).
Compound CCCCCCC(=O)N/N=C/c1c(O)n(CCCC)c(=S)[nH]c1=O has an EC50 of 2.12 µM. Compound Cc1ccc(C(=O)C(c2ccccc2)N2Cc3ccccc3C2=N)cc1 (stereo unspecified) has an EC50 of 5.75 µM. In the case of Cc1cc(C)c2nc(-c3ccncc3)cc(C(=O)N3CCN(Cc4ccccc4Cl)CC3)c2c1, the EC50 is reported as 4.72 µM. With O=C(NNC(=S)NC(=O)c1ccccc1)c1ccc([N+](=O)[O-])cc1 the EC50 was 3.23 µM. For O=C(COc1ccc([N+](=O)[O-])cc1)Nc1nc(-c2ccccn2)cs1, the EC50 was 3.68 µM. With O=C(Nc1nc(-c2ccccc2)c(-c2ccccc2)o1)c1ccc(F)cc1 the EC50 was 0.561 µM. COCCNC(=O)c1c(NC(=O)c2ccc(Br)o2)n(Cc2ccccc2)c2nc3ccccc3nc12 showed an EC50 of 2.44 µM. Work on CN(C)[C@@H]1C(=O)C(C(N)=O)=C(O)[C@@]2(O)C(=O)C3=C(O)c4c(O)ccc(Cl)c4[C@@](C)(O)[C@H]3C[C@@H]12 yielded an EC50 of 0.065 µM. Compound Cc1cc(C(F)F)nn1CC(=O)NC1C(=O)N2C(C(=O)O)=C(CSc3nnnn3C)CSC12 (stereo unspecified) has an EC50 of less than 0.06 µM. CC(C)CC(=O)NC(=S)NNC(=O)c1ccc(NC(=O)C2CCCCC2)cc1 showed an EC50 of 0.546 µM. With CCCCn1c(O)c(N=NC(=O)c2ccccc2NS(=O)(=O)c2cccs2)c2ccccc21 the EC50 was 5.06 µM. For Cn1c(O)c(N=Nc2nc(-c3ccccc3)cs2)c2ccccc21, the EC50 was 1.2 µM. COc1ccc(/C=C2/S/C(=N/N=C3\CC4CCC3(C)C4(C)C)NC2=O)cc1 (stereo unspecified) gave an EC50 of 10.7 µM. Compound CCOC(=O)c1cnn(-c2nc(-c3cccc(F)c3)cs2)c1C(F)(F)F has an EC50 of 12.3 µM. Compound COc1ccc2ccc3c(c2c1)N=C[C@]1(O3)N(C)c2ccccc2C1(C)C has an EC50 of 1.41 µM. COc1ccc(-c2cc(C(F)(F)F)nc(NCc3cccs3)n2)cc1 was tested, and the EC50 was 4.95 µM. Work on Clc1ccc2nc(-c3ccccn3)c(Nc3ccc4c(c3)OCO4)n2c1 yielded an EC50 of 6.99 µM. Compound Cc1csc(NC(=O)c2c(O)c3c(n(CC(C)C)c2=O)CCCC3)n1 has an EC50 of 10.9 µM. With CCOC(=O)c1c(NC(=O)CCS(=O)(=O)c2ccccc2)sc2c1CCN(C)C2 the EC50 was > 15 µM (inactive). In the case of O=C1NC(=O)/C(=C/c2ccccc2Oc2ccc(Cl)cc2)S1, the EC50 is reported as 6.33 µM. In the case of CN(C)/C=C1\SC(=S)N(c2ccc(Br)cc2)C1=O, the EC50 is reported as 5.37 µM. Nc1nc(-c2ccccn2)nc(N)c1Cc1ccccc1F showed an EC50 of 15.3 µM. In the case of Cc1cccc(CSc2ncnc3c2cnn3Cc2ccccc2)c1, the EC50 is reported as 4.58 µM. In the case of COc1ccc(C2CC(O)(c3ccccc3)Oc3c(C)ccc(C)c32)cc1 (stereo unspecified), the EC50 is reported as > 15 µM (inactive). In the case of O=C(NC(NC(=S)Nc1c(Cl)cc(Cl)cc1Cl)C(Cl)(Cl)Cl)OCc1ccccc1 (stereo unspecified), the EC50 is reported as 0.978 µM. Work on Cc1ccccc1-n1nc(C(=O)c2cccs2)cc(-c2nc3ccccc3[nH]2)c1=N yielded an EC50 of 1.59 µM. Compound Clc1ccc(-c2ccc(/C=N/Nc3cc(N4CCOCC4)nc(N4CCOCC4)n3)o2)cc1 has an EC50 of 15.7 µM. Cc1cc(C)c(OCC(=O)N2CCN(c3ncc(C(F)(F)F)cc3Cl)CC2)c(C)c1 gave an EC50 of 6.88 µM. With O=C(/C=C/c1ccccc1)NCCc1ccccc1 the EC50 was > 15 µM (inactive). With CC1CCCC(C)N1c1nnc(NC(=O)c2cc(-c3ccc(Br)cc3)on2)s1 (stereo unspecified) the EC50 was 2.79 µM. O=C(NC(c1ccccc1)c1cc(Cl)c2cccnc2c1O)c1cccnc1 (stereo unspecified) was tested, and the EC50 was 1.38 µM. COc1cccc(/C=N/NC(=O)c2cc3c(OC)ccc(OC)c3[nH]2)c1O gave an EC50 of 2 µM. For Fc1ccc(CSc2ncnc3sc4c(c23)CCCC4)cc1, the EC50 was 3.97 µM. With Cc1ccc(/C=C/c2ccc(=O)n(Cc3ccccc3Cl)n2)cc1 the EC50 was 6 µM. O=C(Nc1nnc(-c2ccc(Cl)cc2)o1)c1nc2ccccc2s1 gave an EC50 of 0.178 µM. CCn1cc(C(=O)O)c(=O)c2cc(F)c(N/N=C/c3ccccc3[N+](=O)[O-])cc21 gave an EC50 of 4.39 µM. CC(C)c1ccc(-c2nc(N3CCCC3)nc3n[nH]c(N)c23)cc1 showed an EC50 of 8.74 µM. Cc1cc(Cl)c2oc(C(=O)N3CCC(O)(c4ccccc4)CC3)c(C)c2c1 showed an EC50 of 7.31 µM. Work on O=C(CC(=O)c1cc(Cl)ccc1O)c1ccccc1 yielded an EC50 of 1.01 µM. In the case of c1ccc(C(NCCNC(c2ccccc2)c2ccccc2)c2ccccc2)cc1, the EC50 is reported as 1.05 µM. With COc1c(N2CCN(C(=S)NC3CC4CCC3C4)C(C)C2)c(F)cc2c(=O)c(C(=O)O)cn(C3CC3)c12 (stereo unspecified) the EC50 was 3.09 µM. Compound O=[N+]([O-])c1ccc(N=Nc2ccc(O)cc2O)cc1 has an EC50 of 2.94 µM. CCOC(=O)c1cnc(-n2cc(C)cn2)nc1Nc1ccccc1OCC was tested, and the EC50 was 4.18 µM. With CCN(CC)C(=S)Sc1c(-c2ccccc2)c2cc(Cl)ccc2[nH]c1=O the EC50 was 0.775 µM. COc1cc(Cl)cc(/C=C/c2ccc3cccc(O)c3n2)c1OC gave an EC50 of 0.951 µM. O=C(Nc1cccc(S(=O)(=O)Nc2ccc(Cl)cc2)c1)c1cc2c(s1)CCCC2 gave an EC50 of 1.3 µM. Compound CC/C(=N\NC(=S)Nc1cccc(C)c1)c1ccccc1 has an EC50 of 7.96 µM. CCc1ccc(Nc2n[n+](-c3ccccc3)c(-c3c(Cl)cccc3Cl)s2)cc1 showed an EC50 of 6.22 µM. CSc1ccc(S(=O)(=O)NCC(=O)OCC(=O)N2CCCC2=O)cc1[N+](=O)[O-] gave an EC50 of 9.29 µM. c1ccc2c(Nc3nc4c(s3)CCCC4)cccc2c1 gave an EC50 of 1.17 µM. C/C(=N/NC(=O)c1cccs1)c1c(C)[nH]n(-c2nc3ccccc3s2)c1=O showed an EC50 of 3.24 µM. Compound Cc1cc(C)c2sc(NNC(=O)c3ccc(S(=O)(=O)N4CCc5ccccc5C4)cc3)nc2c1 has an EC50 of 1.06 µM. For O=C(O)c1cnc(-c2ccccc2)nc1Sc1ccc(Cl)cc1Cl, the EC50 was 9.74 µM. In the case of CCCCCCCCCCCCCCCCn1cc[n+](C)c1, the EC50 is reported as 1.9 µM and 2.05 µM. Cc1ccc(F)c(NC(=O)/C(C#N)=C(\O)c2ccc(C(C)(C)C)cc2)c1 gave an EC50 of 6.33 µM. C/C(=N/NC(=O)CNC(=O)c1cccnc1)c1cccc([N+](=O)[O-])c1 was tested, and the EC50 was > 15 µM (inactive). For Nc1nonc1-n1nnc(C(=O)N/N=C/c2cc(Br)ccc2O)c1CNc1ccccc1, the EC50 was 0.394 µM. In the case of Cc1ccsc1C1C=C(c2cccc(Br)c2)Nc2ncnn21 (stereo unspecified), the EC50 is reported as 14.2 µM. CC1(C)S[C@@H]2[C@H](NC(=O)COc3ccccc3)C(=O)N2C1C(=O)OCc1cc2ccccc2n1S(=O)(=O)c1ccccc1 (stereo partly specified) showed an EC50 of 3.33 µM. For CCOc1ccc(C)cc1S(=O)(=O)NC1CCCCCC1, the EC50 was > 15 µM (inactive). In the case of Cc1ccc(S(=O)(=O)Nc2cc(Cl)c(O)c3ncccc23)cc1, the EC50 is reported as 7.11 µM. For CCC(=O)NC(=S)Nc1ccc(NC(=S)NC(=O)c2ccccc2)cc1, the EC50 was 0.805 µM. For Cc1ccc(-n2[nH]c(C)c(/C=N/NC(=O)c3cccc([N+](=O)[O-])c3)c2=O)cc1C, the EC50 was 1.15 µM. CCc1sc(N(C(=O)Cc2ccccc2)c2cccc(F)c2)nc1-c1ccc(C)cc1 was tested, and the EC50 was 1.77 µM. In the case of Cc1ccccc1NC(=O)C(=O)NC(C)CCc1ccccc1 (stereo unspecified), the EC50 is reported as > 15 µM (inactive). For COc1ccc(-c2c(C(F)(F)F)[nH]n3c(=O)cc(-c4ccccc4)nc23)cc1, the EC50 was 4.73 µM. CCCc1cc(=O)n2[nH]c(C)c(-c3ccc(Cl)cc3)c2n1 gave an EC50 of 5.81 µM. O=C(N/N=C/c1cc([N+](=O)[O-])ccc1O)c1cc(-c2ccccc2)nc2ccccc12 gave an EC50 of 0.603 µM. In the case of O=C(CCc1ccccc1)Nc1nnc(-c2ccc3c(c2)CCCC3)o1, the EC50 is reported as 1.59 µM. For COc1ccc(S(=O)(=O)N2CCN=C2SCc2cccc(C)c2)cc1, the EC50 was > 15 µM (inactive). In the case of C/C(N)=C(/C#N)C(=O)CSc1nc2scc(-c3ccccc3)c2c(=O)n1C, the EC50 is reported as 1.62 µM. O=C(CCC(=O)Nc1ccc(Br)cc1)N/N=C/c1ccccc1O was tested, and the EC50 was 5.07 µM. COC(=O)c1ccc(CN(c2ccc(C(=O)O)c(O)c2)S(=O)(=O)c2ccc(Cl)c([N+](=O)[O-])c2)cc1 was tested, and the EC50 was 2.63 µM. Work on O=C1/C(=N\S(=O)(=O)c2cccs2)C([n+]2cccc(Cc3ccccc3)c2)=C([O-])c2ccccc21 yielded an EC50 of 1.68 µM. In the case of COc1ccccc1OCC(=O)Nc1c2c(nn1-c1ccc(F)cc1)CS(=O)(=O)C2, the EC50 is reported as > 15 µM (inactive). For CCc1cc(-c2n[nH]c(C)c2Oc2ccc(C(C)C)cc2)c(O)cc1O, the EC50 was 1.85 µM. Compound COC(=O)c1sc(N2C(=O)C(O)=C(C(=O)c3ccc(C)o3)C2c2ccc([N+](=O)[O-])cc2)nc1C (stereo unspecified) has an EC50 of 4.1 µM. With CCCCC(CC)C(=O)Oc1ccc(O)c(C(C)(C)C)c1 (stereo unspecified) the EC50 was 2.89 µM. With CCOc1ccc(N(C)c2ccc(/C=C3/SC(=S)NC3=O)cc2)cc1 the EC50 was 4.3 µM. In the case of Cc1cccc(-c2oc3ccccc3c2C#CCCCCO)c1, the EC50 is reported as 5.72 µM. For CSc1n[nH]c2nc3c(c(=O)n12)C1(CCCCC1)Cc1ccccc1-3, the EC50 was 10.5 µM. COc1ccc(C(=O)/C=C/c2ccc(O)cc2)c(O)c1CC=C(C)C gave an EC50 of 2.14 µM. Compound O=C(Cn1nc(CNc2ccc(Cl)cc2)[n+]2c1CCCCC2)c1ccc(Br)cc1 has an EC50 of 10.8 µM. CCCCOc1ccc(-c2c(C#N)c(N)nc(SCC(N)=O)c2C#N)cc1 gave an EC50 of 4.61 µM. CCOC(=O)c1cccnc1SCC(=O)NC(C)CC (stereo unspecified) was tested, and the EC50 was > 15 µM (inactive). Compound Cc1c(N/N=C(\C#N)C(=O)c2ccccc2)c(=O)n(-c2ccccc2)n1C has an EC50 of 1.44 µM. For Cc1[nH]c2ccccc2c1C(=O)COC(=O)c1ccc2c(=O)n3c(nc2c1)CCC3, the EC50 was 1.52 µM. Work on O=C(CC1CCCCC1)c1c(O)c2ccccc2oc1=O yielded an EC50 of 3.54 µM. Compound CC(C)=CCc1c(-c2ccc(O)cc2O)oc2c3c(cc(O)c2c1=O)OC(C)(C)C=C3 has an EC50 of 1.23 µM. Compound Cc1[nH]c(N=Nc2ccccc2)nc1N=Nc1ccccc1 has an EC50 of 2.8 µM. NS(=O)(=O)c1ccc(-c2ccc(/C=C3\SC(=S)N(C4CCS(=O)(=O)C4)C3=O)o2)cc1 (stereo unspecified) showed an EC50 of 4.95 µM. For COc1ccccc1/C=N\Nc1cc(C)nc(-n2nc(C)cc2C)n1, the EC50 was 6.26 µM. O=C(N/N=C/c1ccccc1O)c1ccc2c(c1)OCO2 showed an EC50 of 2.76 µM. In the case of Cc1ccc(C(=O)NC2CCCC2)s1, the EC50 is reported as > 15 µM (inactive). Compound O=C(Nc1nc(-c2ccccn2)cs1)Nc1ccc(F)cc1F has an EC50 of 1.24 µM. For FC(F)(F)c1cccc(-c2cc3ccccc3nc2N2CCCC2)c1, the EC50 was 3.6 µM. Compound COc1ccc(C(=O)NC(=S)NNC(=O)c2ccco2)cc1 has an EC50 of 4.48 µM. Work on CCOC(=O)c1nc(Nc2ccc(Nc3ccccc3)cc2)c2ccccc2n1 yielded an EC50 of 9.84 µM. With CC(=O)N(C)c1ccc(OCC(O)Cn2c3ccc(Cl)cc3c3cc(Cl)ccc32)cc1 (stereo unspecified) the EC50 was 3.35 µM. Work on Cc1ccc(/C=C/C(=O)NC(=S)Nc2ccc(S(=O)(=O)Nc3cc(C)on3)cc2)cc1 yielded an EC50 of 9.27 µM. Work on COc1ccc(-n2c(=S)[nH]c3cc(C(=O)Nc4ccc(C)c(F)c4)ccc3c2=O)c(OC)c1 yielded an EC50 of 2.84 µM. In the case of Oc1ccc(Br)cc1/C=N/Nc1nc(N2CCCCC2)nc(N2CCOCC2)n1, the EC50 is reported as 3.81 µM. With c1ccc(-c2csc3ncnc(N4CCc5ccccc5C4)c23)cc1 the EC50 was 7.04 µM. For CCc1ccc(/C=C2/SC(=S)N(CC(=O)Nc3nc4ccccc4s3)C2=O)cc1, the EC50 was 2.52 µM. With Oc1ccc(Br)cc1/C=N/Nc1ncc(-c2ccccc2)cn1 the EC50 was 1.7 µM. CCOC(=O)c1sc(N2C(=O)C(O)=C(C(=O)c3ccco3)C2c2cccc(Cl)c2)nc1C (stereo unspecified) gave an EC50 of 5.26 µM.
